Values quoted from earlier work, collected in patent publication US20230265432A1, “METHODS AND COMPOSITIONS FOR TREATING ACUTE MYELOID LEUKEMIA” (Sanford Burnham Prebys Medical Discovery Institute, priority 2021, published 2023).
pEC50, pIC50, pKi: −log10 of the molar value. Where a name gives a salt, the structure may show the parent alone.

Assays:
HuT-78 cells = conditions: cited from earlier work
human dermal fibroblasts = conditions: cited from earlier work
HCT116 = conditions: cited from earlier work
HDAC2 = HDAC2 (Homo sapiens, UniProt Q92769); conditions: cited from earlier work
HDAC4 = HDAC4 (Homo sapiens, UniProt P56524); conditions: cited from earlier work
HDAC6 = molecular target: T1, HDAC6 (Homo sapiens, UniProt Q9UBN7); conditions: cited from earlier work
T1 sequence (Q9UBN7 1-1215): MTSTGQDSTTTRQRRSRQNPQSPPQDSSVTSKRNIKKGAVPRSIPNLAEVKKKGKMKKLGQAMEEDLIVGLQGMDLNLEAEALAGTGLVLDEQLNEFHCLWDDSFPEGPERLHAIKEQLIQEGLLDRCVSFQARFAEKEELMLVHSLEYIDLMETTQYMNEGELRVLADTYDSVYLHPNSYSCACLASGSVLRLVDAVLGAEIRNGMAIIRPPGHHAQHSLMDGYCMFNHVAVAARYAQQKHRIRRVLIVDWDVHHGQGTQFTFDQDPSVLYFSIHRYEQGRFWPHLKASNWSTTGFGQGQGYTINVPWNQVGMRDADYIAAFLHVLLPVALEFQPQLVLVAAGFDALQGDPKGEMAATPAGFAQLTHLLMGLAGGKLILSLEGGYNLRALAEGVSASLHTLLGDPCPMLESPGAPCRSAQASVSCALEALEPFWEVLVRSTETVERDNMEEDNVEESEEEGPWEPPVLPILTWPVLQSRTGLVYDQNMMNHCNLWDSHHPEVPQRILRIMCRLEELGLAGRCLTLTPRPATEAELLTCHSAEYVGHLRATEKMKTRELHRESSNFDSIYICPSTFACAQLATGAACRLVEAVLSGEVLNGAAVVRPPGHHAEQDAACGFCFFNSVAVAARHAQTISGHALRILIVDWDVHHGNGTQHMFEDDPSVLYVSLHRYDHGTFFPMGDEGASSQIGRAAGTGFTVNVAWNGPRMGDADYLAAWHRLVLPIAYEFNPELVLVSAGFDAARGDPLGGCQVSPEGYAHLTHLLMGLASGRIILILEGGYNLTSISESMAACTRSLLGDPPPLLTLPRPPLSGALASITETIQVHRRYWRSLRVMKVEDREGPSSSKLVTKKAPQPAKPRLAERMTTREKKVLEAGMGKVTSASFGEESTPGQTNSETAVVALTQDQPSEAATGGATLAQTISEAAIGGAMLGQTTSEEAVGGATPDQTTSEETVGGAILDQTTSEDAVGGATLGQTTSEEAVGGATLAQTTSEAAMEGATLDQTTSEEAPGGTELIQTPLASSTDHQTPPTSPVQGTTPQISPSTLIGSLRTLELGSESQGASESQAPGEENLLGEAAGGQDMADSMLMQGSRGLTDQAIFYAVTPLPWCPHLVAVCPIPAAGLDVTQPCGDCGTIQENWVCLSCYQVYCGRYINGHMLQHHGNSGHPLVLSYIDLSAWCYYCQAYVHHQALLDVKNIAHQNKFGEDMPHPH

EGFR = EGFR (Homo sapiens, UniProt P00533); conditions: cited from earlier work
[1] = tested on: p53K370 monomethylation in cells; conditions: cited from earlier work
SIRT2 = SIRT2 (Homo sapiens, UniProt Q8IXJ6); conditions: cited from earlier work
SIRT3 = SIRT3 (Homo sapiens, UniProt Q9NTG7); conditions: cited from earlier work
SIRT3, sequence (Q9NTG7 whole entry, species assumed): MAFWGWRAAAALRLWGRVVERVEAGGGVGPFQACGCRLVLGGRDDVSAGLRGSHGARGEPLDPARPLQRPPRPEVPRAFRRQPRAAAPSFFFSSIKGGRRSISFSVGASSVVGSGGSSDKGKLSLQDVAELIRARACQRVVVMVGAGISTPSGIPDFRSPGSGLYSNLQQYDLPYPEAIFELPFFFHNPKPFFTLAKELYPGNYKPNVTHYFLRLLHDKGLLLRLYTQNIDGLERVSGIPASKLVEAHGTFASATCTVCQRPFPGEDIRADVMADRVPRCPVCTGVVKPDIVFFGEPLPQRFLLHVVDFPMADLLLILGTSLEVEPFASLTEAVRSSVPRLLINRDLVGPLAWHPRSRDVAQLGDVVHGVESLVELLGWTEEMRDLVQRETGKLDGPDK

PARP = conditions: cited from earlier work
[2] = tested on: phosphorylation of histone 2A at Thr120 in DU-145 human prostate cancer cells; conditions: cited from earlier work
[3] = molecular target: jumonji histone demethylase (JMJD2); conditions: cited from earlier work
[4] = tested on: various cancer cell lines; conditions: proliferation; cited from earlier work
[5] = tested on: histone methylation in cells; conditions: cited from earlier work
MOF = MOF (Homo sapiens, UniProt Q9H7Z6); conditions: cited from earlier work
BRD2 = BRD2 (Homo sapiens, UniProt P25440); conditions: cited from earlier work
BRD3 = BRD3 (Homo sapiens, UniProt Q15059); conditions: cited from earlier work
BRD3, sequence (Q15059 whole entry, species assumed): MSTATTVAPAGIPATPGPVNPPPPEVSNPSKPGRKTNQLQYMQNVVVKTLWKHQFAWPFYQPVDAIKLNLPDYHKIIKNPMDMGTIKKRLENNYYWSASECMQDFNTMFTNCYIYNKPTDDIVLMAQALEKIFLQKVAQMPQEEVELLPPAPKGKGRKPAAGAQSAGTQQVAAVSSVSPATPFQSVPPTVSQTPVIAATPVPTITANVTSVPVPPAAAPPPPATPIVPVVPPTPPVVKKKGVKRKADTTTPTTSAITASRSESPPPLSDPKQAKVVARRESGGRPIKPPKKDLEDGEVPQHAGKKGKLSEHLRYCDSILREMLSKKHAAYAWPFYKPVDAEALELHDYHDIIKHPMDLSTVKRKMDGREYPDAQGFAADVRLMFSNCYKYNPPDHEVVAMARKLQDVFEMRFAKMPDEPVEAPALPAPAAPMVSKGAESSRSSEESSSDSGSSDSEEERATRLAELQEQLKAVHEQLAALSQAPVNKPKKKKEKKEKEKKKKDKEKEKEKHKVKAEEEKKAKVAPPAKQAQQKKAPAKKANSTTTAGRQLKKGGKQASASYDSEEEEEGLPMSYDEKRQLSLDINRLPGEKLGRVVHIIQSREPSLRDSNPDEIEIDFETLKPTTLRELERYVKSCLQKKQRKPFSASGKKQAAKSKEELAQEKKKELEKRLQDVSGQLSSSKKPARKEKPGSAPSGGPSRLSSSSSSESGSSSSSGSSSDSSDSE

SMYD2 = SMYD2 (Homo sapiens, UniProt Q9NRG4); conditions: cited from earlier work
SMYD2, sequence (Q9NRG4 whole entry, species assumed): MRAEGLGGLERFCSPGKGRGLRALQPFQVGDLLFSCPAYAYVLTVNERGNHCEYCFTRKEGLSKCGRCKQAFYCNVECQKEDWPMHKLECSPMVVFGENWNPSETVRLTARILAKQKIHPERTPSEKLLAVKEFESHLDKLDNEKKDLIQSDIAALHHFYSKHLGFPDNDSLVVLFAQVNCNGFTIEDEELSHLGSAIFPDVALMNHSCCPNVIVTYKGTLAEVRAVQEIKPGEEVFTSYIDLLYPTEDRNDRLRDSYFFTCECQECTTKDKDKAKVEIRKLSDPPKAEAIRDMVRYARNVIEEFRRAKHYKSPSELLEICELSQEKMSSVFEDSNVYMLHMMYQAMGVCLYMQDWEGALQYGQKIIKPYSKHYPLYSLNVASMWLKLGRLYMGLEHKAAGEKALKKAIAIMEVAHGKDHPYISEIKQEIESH

EZH2 = EZH2 (Homo sapiens, UniProt Q15910); conditions: cited from earlier work
EZH2 (Y641F) = EZH2 (Y641F) (Homo sapiens, UniProt Q15910, Y641F); conditions: cited from earlier work
EZH1 = EZH1 (Homo sapiens, UniProt Q92800); conditions: cited from earlier work
EZH1, sequence (Q92800 whole entry, species assumed): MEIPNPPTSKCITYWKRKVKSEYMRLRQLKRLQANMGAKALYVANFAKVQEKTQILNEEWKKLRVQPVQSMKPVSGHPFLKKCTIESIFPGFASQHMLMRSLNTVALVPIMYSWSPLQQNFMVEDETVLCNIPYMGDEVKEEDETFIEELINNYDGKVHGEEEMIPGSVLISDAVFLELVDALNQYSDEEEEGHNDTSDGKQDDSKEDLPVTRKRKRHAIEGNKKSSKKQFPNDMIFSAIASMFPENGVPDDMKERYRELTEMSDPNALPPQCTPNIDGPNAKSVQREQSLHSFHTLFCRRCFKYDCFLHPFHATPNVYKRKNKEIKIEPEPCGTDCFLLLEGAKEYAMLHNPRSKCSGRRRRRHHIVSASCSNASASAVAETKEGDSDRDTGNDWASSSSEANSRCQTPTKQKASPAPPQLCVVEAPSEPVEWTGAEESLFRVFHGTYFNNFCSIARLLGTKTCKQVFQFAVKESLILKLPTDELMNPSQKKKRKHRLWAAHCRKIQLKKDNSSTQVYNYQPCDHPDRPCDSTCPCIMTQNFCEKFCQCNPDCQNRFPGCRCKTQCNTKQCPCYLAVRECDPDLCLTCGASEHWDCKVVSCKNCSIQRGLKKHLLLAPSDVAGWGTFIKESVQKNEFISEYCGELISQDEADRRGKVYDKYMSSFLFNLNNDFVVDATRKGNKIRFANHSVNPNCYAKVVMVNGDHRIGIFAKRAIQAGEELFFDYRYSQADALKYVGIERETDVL
EZH1, sequence (O75530 whole entry partner, species assumed): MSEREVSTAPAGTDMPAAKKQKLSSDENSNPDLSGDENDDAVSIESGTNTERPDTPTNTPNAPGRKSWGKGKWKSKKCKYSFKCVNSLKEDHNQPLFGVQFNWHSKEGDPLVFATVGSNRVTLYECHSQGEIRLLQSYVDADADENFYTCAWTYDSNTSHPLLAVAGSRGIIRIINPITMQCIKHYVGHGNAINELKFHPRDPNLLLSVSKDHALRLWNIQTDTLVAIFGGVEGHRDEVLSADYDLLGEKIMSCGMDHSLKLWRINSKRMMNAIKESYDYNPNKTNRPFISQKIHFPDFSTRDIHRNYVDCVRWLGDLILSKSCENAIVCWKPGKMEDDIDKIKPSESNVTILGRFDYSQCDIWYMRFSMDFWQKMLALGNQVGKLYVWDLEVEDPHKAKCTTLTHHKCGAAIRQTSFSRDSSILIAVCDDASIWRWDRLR
EZH1, sequence (Q15022 whole entry partner, species assumed): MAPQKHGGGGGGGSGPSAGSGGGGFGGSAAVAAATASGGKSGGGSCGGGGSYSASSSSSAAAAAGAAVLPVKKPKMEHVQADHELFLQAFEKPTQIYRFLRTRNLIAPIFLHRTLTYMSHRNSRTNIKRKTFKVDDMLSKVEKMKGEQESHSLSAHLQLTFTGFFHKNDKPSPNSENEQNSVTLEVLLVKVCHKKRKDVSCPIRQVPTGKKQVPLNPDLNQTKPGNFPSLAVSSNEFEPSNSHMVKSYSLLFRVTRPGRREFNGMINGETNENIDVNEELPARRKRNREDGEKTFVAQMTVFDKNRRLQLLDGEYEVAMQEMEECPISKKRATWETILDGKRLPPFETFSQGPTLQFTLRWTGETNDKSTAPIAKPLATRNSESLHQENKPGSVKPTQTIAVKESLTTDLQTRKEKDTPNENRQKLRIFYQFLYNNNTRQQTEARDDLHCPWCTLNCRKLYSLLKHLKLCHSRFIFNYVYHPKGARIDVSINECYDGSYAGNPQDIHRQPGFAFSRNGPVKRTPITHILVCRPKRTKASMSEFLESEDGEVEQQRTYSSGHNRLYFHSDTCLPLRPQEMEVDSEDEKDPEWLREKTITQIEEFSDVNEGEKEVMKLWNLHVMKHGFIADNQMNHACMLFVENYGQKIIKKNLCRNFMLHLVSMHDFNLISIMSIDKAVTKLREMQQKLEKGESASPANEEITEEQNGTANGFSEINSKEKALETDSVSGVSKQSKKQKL
EZH1, sequence (Q09028 whole entry partner, species assumed): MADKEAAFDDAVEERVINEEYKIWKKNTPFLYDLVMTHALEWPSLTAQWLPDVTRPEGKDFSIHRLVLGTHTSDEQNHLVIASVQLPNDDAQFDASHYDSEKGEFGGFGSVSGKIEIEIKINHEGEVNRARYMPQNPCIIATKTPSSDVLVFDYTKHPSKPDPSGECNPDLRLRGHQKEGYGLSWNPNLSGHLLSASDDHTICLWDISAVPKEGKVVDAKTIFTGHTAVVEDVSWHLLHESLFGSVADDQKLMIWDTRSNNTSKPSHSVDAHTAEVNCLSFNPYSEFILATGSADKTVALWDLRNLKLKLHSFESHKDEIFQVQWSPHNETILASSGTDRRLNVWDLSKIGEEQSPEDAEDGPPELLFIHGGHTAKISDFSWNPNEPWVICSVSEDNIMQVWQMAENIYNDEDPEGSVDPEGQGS

[6] = tested on: EZH2 mutant DLBCL cell lines; conditions: proliferation; cited from earlier work
DNA methyltransferase = conditions: cited from earlier work
STAT3 = molecular target: T2, STAT3 (Homo sapiens, UniProt P40763); conditions: in HEL cells; cited from earlier work
T2 construct: endogenous in cells; host or cells: HEL cells

JAK2 = molecular target: T3, JAK2 (Homo sapiens, UniProt O60674, V617F); conditions: in HEL cells; cited from earlier work
T3 construct: endogenous in cells; host or cells: HEL cells
T3 sequence (O60674 whole entry V617F): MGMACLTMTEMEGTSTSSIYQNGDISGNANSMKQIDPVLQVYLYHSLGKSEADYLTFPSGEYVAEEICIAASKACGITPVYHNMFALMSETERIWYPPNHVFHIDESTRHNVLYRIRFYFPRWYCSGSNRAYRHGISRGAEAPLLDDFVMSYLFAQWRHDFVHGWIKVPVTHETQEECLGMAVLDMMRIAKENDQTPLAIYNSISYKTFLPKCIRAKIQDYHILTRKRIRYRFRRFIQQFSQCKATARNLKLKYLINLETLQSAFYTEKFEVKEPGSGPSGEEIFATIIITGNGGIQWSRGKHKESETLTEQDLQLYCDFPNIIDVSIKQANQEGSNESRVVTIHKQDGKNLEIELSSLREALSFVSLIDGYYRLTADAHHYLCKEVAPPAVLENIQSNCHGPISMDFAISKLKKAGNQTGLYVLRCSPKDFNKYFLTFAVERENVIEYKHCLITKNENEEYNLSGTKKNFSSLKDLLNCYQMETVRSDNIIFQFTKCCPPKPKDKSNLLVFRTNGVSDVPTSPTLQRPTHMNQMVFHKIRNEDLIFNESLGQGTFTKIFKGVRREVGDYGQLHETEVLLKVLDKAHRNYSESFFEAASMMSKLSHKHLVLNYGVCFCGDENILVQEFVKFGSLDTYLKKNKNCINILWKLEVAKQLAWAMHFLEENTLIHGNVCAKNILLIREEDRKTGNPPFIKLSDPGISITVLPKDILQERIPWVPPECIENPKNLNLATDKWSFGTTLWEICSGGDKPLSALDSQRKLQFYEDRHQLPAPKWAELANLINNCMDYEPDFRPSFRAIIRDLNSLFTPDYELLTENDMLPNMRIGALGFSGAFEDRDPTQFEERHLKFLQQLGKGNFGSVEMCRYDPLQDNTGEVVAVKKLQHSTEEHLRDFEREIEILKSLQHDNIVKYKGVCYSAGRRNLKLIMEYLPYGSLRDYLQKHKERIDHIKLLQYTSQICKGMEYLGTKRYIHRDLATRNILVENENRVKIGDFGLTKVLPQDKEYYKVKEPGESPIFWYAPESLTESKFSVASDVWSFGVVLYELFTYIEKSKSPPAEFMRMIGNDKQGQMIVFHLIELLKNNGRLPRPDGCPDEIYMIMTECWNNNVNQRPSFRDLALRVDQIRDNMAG

CCOC(=O)NCCCC(=O)NCCc1ccccc1 [CAY10683]
GI50 (HuT-78 cells): 1400 nM
GI50 (human dermal fibroblasts): > 100000 nM
GI50 (HCT116): 29400 nM
pIC50 (HDAC2): 9.92
pIC50 (HDAC4): < 6.00
pIC50 (HDAC6): 6.36

AG-490 (Tyrphostin B42)
fold more selective for EGFR versus ErbB2 (EGFR): 135 fold

Cc1cn(CCN2CCN(c3ccccc3-c3cc(C#N)cc(C(=O)NCCCN4CCCC4)c3)CC2)c2ccccc12 [LLY-507]
pIC50 [1]: ~6.22

N#C/C(=C\c1ccc(-c2cc(Cl)ccc2Cl)o1)C(=O)Nc1cccc2cccnc12 [AGK7]
pIC50 (SIRT2): < 4.30
pIC50 (SIRT3): < 5.30

CN(C)CC(=O)Nc1ccc2[nH]c(=O)c3ccccc3c2c1 [PJ34]
pEC50 (PARP): 7.70

C(=N\Nc1ncnc2sc3c(c12)CCCC3)/c1c[nH]c2ccccc12 [B32B3]
pIC50 [2]: 6.30

CN(C)CCCNC(=O)c1ccc(-c2cc(O)c3ncccc3c2)cc1 [ML324]
pIC50 [3]: 6.04

c1ccc([C@@H]2C[C@H]2NC2CCNCC2)cc1 [GSK-LSD1 (hydrochloride)]
pEC50 [4]: > 8.30

O=C(NCC(=O)N1CCCC1)Nc1ccc2cnccc2c1 [SGC707]
pIC50 [5]: > 6.00

CCCCCCCc1ccc(CCc2cccc(O)c2C(=O)O)cc1 [MG149]
pIC50 (MOF): 4.33

CC(=O)N1c2ccc(-c3ccc(C(=O)O)cc3)cc2[C@H](Nc2ccc(Cl)cc2)C[C@@H]1C [GSK1324726A (I-BET726)]
pIC50 (BRD2): 7.39
pIC50 (BRD3): 7.51

O=C1COc2c(CCNCCN(C(=O)CCNCCc3ccc(Cl)c(Cl)c3)C3CCCCC3)ccc(O)c2N1 [AZ 505]
pIC50 (SMYD2): 6.92

CCC(CC)n1ccc2c(C(=O)NCc3c(C)cc(C)[nH]c3=O)cc(C#N)cc21 [EI1]
pIC50 (EZH2): 7.82
pIC50 (EZH2 (Y641F)): 7.89

CC[C@H](C)n1cc(C)c2c(C(=O)NCc3c(C)cc(C)[nH]c3=O)cc(-c3ccc(N4CCNCC4)nc3)cc21 [GSK 126]
pIC50 (EZH1): 6.17
pKi (EZH1): 7.05
pIC50 [6]: 7.21 to 7.55

O=C(O)C(Cc1c[nH]c2ccccc12)N1C(=O)c2ccccc2C1=O (stereo not drawn) [RG108]
pIC50 (DNA methyltransferase): 6.94

C[C@H](NC(=O)/C(C#N)=C/c1cccc(Br)n1)c1ccccc1 [WP1066]
pIC50 (STAT3): 5.61
pIC50 (JAK2): 5.64
